# Measurements from the supplement of paper PMC10307832.
# Key:
# Experiment in all cases: relative viability (nuclei count vs DMSO), 5 days (fraction); higher = more cells survive
# BI-D1870 = compound: CC(C)CCN1c2nc(Nc3cc(F)c(O)c(F)c3)ncc2N(C)C(=O)C1C [BI-D1870]
# Procedure, shortened: (§1)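 On vehicle-anchored 1536-well plates, lung cancer cell lines held overnight at 37 °C were pinned with five library-drug doses (not always all listed) spaced by √10. With no medium change over 5 days, they were then fixed, permeabilised and Hoechst-stained in one step and imaged at 4×. MetaXpress counted nuclei, and viability is the median across plates of treated-well over vehicle-well nuclei. Acceptance needed control CV below 25% and at least one doubling.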
# Zebularine = compound: O=c1ncccn1[C@@H]1O[C@H](CO)[C@@H](O)[C@H]1O [Zebularine]
# Procedure, shortened: as §1
# BI-D1870 + Trametinib = compound: CC(C)CCN1c2nc(Nc3cc(F)c(O)c(F)c3)ncc2N(C)C(=O)C1C [BI-D1870] + CC(=O)Nc1cccc(-n2c(=O)n(C3CC3)c(=O)c3c(Nc4ccc(I)cc4F)n(C)c(=O)c(C)c32)c1 [Trametinib] (partner 0.02 µM)
# Procedure, shortened: (§2)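 A single step with final 0.05% Triton X-100, 1% formaldehyde and 1 ug/ml Hoechst fixed the cells and stained nuclei 5 days after treatment. Lung cancer cell lines in 1536-well plates had been treated by pin tool the day after seeding with one drug alone or a fixed anchor-drug dose plus five library-drug doses (not always all listed) in √10 steps, and nuclei were counted on 4× images. Relative viability is the ratio of nuclei in treated wells to nuclei in vehicle wells, taken as the median of duplicate plates.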
# Zebularine + Navitoclax = compound: O=c1ncccn1[C@@H]1O[C@H](CO)[C@@H](O)[C@H]1O [Zebularine] + CC1(C)CCC(c2ccc(Cl)cc2)=C(CN2CCN(c3ccc(C(=O)NS(=O)(=O)c4ccc(N[C@H](CCN5CCOCC5)CSc5ccccc5)c(S(=O)(=O)C(F)(F)F)c4)cc3)CC2)C1 [Navitoclax] (partner 0.5 µM)
# Procedure, shortened: as §2
Cell Line,relative viability (BI-D1870; 0.04 µM),relative viability (BI-D1870; 0.1265 µM),relative viability (BI-D1870; 0.4 µM),relative viability (BI-D1870; 1.265 µM),relative viability (BI-D1870; 4 µM),relative viability (Zebularine; 1 µM),relative viability (Zebularine; 3.162 µM),relative viability (Zebularine; 10 µM),relative viability (Zebularine; 31.62 µM),relative viability (Zebularine; 100 µM),relative viability (BI-D1870 + Trametinib; first compound 0.04 µM),relative viability (BI-D1870 + Trametinib; first compound 0.1265 µM),relative viability (BI-D1870 + Trametinib; first compound 0.4 µM),relative viability (BI-D1870 + Trametinib; first compound 1.265 µM),relative viability (BI-D1870 + Trametinib; first compound 4 µM),relative viability (Zebularine + Navitoclax; first compound 1 µM),relative viability (Zebularine + Navitoclax; first compound 3.162 µM),relative viability (Zebularine + Navitoclax; first compound 10 µM),relative viability (Zebularine + Navitoclax; first compound 31.62 µM),relative viability (Zebularine + Navitoclax; first compound 100 µM)
LK-2,1.14,1,1.28,1.21,0.973,1,1.03,0.556,0.544,0.392,0.864,0.8,0.786,0.97,0.649,0.759,0.946,0.588,0.787,0.417
NCI-H2126,1.05,0.889,0.981,1,0.854,1.06,0.884,0.879,0.927,0.648,0.557,0.598,0.564,0.546,0.539,0.862,0.813,0.766,0.735,0.509
NCI-H3122,1.03,0.927,0.951,1.02,0.903,1.03,0.987,0.875,1.01,1.04,0.234,0.202,0.234,0.25,0.279,1.06,1.02,0.943,1.08,1.02
NCI-H1975,1.15,0.904,0.99,0.914,0.851,1,0.859,0.519,0.468,0.258,0.373,0.285,0.339,0.365,0.289,1.13,1.08,0.64,0.575,0.229
NCI-H1944,1.12,0.919,0.907,1.03,0.941,0.995,1.02,0.788,0.947,0.718,0.443,0.362,0.382,0.423,0.393,1.11,0.984,0.705,0.9,0.669
LU99A,1.01,0.822,0.98,0.827,0.77,1.06,0.997,0.883,0.689,0.246,0.513,0.436,0.519,0.511,0.533,0.827,0.635,0.596,0.408,0.166
SW 1573,1.14,0.896,0.968,0.857,0.61,1.04,0.897,0.721,1.01,0.77,0.595,0.528,0.552,0.497,0.318,1.04,0.735,0.6,0.947,0.529
NCI-H2347,1.14,1.02,0.964,1.06,0.894,1.11,1.05,0.753,0.583,0.489,0.302,0.26,0.273,0.296,0.322,0.836,0.81,0.563,0.475,0.369
NCI-H2009,1.11,0.967,1.02,0.858,0.513,1.05,0.987,0.793,0.704,0.358,0.299,0.221,0.248,0.289,0.198,1.12,1.13,0.951,0.876,0.358
HCC-15,1.02,0.935,0.93,1.02,0.725,1.11,0.974,0.752,0.906,0.497,0.376,0.35,0.371,0.444,0.392,0.775,0.72,0.507,0.781,0.469
HCC-44,1.04,0.876,0.989,1.07,1.03,1.05,1.02,0.701,0.843,0.44,1.04,1.06,1.07,1.04,1.2,0.965,0.943,0.669,0.973,0.248
COR-L23,1.12,0.945,1.09,1.13,0.83,1.07,1.05,0.484,0.504,0.177,0.75,0.536,0.589,0.622,0.572,1.02,1.15,0.323,0.558,0.218
HCC-78,0.952,1,0.97,1.16,0.875,1.07,0.945,0.626,0.916,0.387,0.526,0.655,0.675,1.03,0.569,0.811,0.775,0.592,0.497,0.22
NCI-H727,1.1,0.888,0.934,0.79,0.91,0.906,0.811,0.726,0.976,0.92,0.41,0.406,0.406,0.438,0.429,0.492,0.451,0.474,0.442,0.411
NCI-H2087,1.13,0.977,1.15,1.21,0.78,1.04,0.949,0.747,0.894,0.381,0.2,0.158,0.189,0.246,0.199,1.16,0.885,0.488,0.767,0.37
BEN,1.03,0.915,1.05,1.07,0.845,0.913,0.788,0.45,0.378,0.333,1.01,0.896,1.05,1.04,0.963,0.0641,0.0628,0.162,0.0748,0.0383

Cell Line,relative viability (BI-D1870; 0.04 µM),relative viability (BI-D1870; 0.1265 µM),relative viability (BI-D1870; 0.4 µM),relative viability (BI-D1870; 1.265 µM),relative viability (BI-D1870; 4 µM),relative viability (Zebularine; 1 µM),relative viability (Zebularine; 3.162 µM),relative viability (Zebularine; 10 µM),relative viability (Zebularine; 31.62 µM),relative viability (Zebularine; 100 µM),relative viability (BI-D1870 + Trametinib; first compound 0.04 µM),relative viability (BI-D1870 + Trametinib; first compound 0.1265 µM),relative viability (BI-D1870 + Trametinib; first compound 0.4 µM),relative viability (BI-D1870 + Trametinib; first compound 1.265 µM),relative viability (BI-D1870 + Trametinib; first compound 4 µM),relative viability (Zebularine + Navitoclax; first compound 1 µM),relative viability (Zebularine + Navitoclax; first compound 3.162 µM),relative viability (Zebularine + Navitoclax; first compound 10 µM),relative viability (Zebularine + Navitoclax; first compound 31.62 µM),relative viability (Zebularine + Navitoclax; first compound 100 µM)
EKVX,1.06,0.94,0.889,1.11,0.931,1.04,0.961,–,1.03,0.985,0.336,0.281,0.339,0.401,0.445,1.03,0.755,–,0.947,1.03
LXF-289,1.01,0.946,0.973,1.02,0.846,1.06,0.889,0.931,0.831,0.346,0.755,0.608,0.71,0.738,0.612,1.02,0.945,0.851,0.744,0.226
NCI-H1650,0.9,0.765,1,0.96,0.807,1.03,0.904,0.766,1.15,0.727,0.705,0.551,0.573,0.64,0.552,1.06,1.06,–,1.21,0.704
NCI-H2085,1.06,0.95,1.01,0.984,0.746,1,0.949,0.829,0.972,0.662,0.547,0.411,0.576,0.654,0.524,1.19,1.17,0.868,1.08,0.573
NCI-H1793,1.06,0.803,0.757,1.19,0.801,1.16,1,0.442,0.67,0.237,0.486,0.332,0.366,0.631,0.429,0.403,0.448,0.318,0.285,0.208
LC-2-ad,1.08,0.957,1.02,1.01,0.868,1.02,0.937,0.653,0.719,0.355,0.897,0.848,0.957,0.956,0.882,0.409,0.422,0.291,0.33,0.137
COR-L 105,0.895,0.836,0.949,0.939,0.888,1.03,0.952,0.831,1.15,0.873,0.428,0.409,0.487,0.419,0.458,0.642,0.738,0.674,0.768,0.747
NCI-H1355,1.06,0.917,0.958,1.11,0.861,1.06,0.955,0.749,0.62,0.33,0.455,0.361,0.448,0.418,0.454,0.955,0.894,0.898,0.456,0.306
H3255,1.01,0.97,1.04,1.09,0.994,1.01,0.948,0.782,0.998,1.05,0.655,0.506,0.568,0.661,0.599,0.627,0.453,–,0.36,0.409
NCI-H1993,1.03,0.876,0.827,1.15,0.702,1.18,0.945,0.736,0.963,0.774,0.404,0.505,0.621,0.567,0.42,0.946,0.946,–,1.02,0.754
NCI-H1734,1.02,0.922,0.978,0.987,0.815,1.02,0.97,0.771,0.579,0.289,0.752,0.549,0.658,0.706,0.632,0.926,0.769,0.513,0.475,0.22
HOP-62,1.18,1.01,0.965,1.03,0.949,1.11,0.911,0.564,0.287,0.213,0.429,0.332,0.331,0.367,0.299,1.11,1.01,0.424,0.217,0.197
LOU-NH91,1.05,0.945,0.895,1.04,0.729,0.976,1.01,0.875,0.979,0.725,0.842,0.762,0.788,0.761,0.651,0.676,0.659,0.634,0.603,0.395
ChaGo-K-1,1.05,0.991,0.9,0.962,0.868,1.03,0.97,0.525,0.317,0.244,0.899,0.753,0.874,0.909,0.856,1.18,0.891,0.562,0.538,0.292
NCI-H2228,0.999,0.82,0.845,1.21,0.702,1.17,1.08,0.782,0.8,0.486,0.54,0.367,0.362,0.56,0.223,1.46,0.843,0.655,0.722,0.191
